Test in all cases: relative viability (nuclei count vs DMSO), 5 days (fraction); higher = more cells survive
Compound in experiment [1]: C1=CC=C2C(=C1)N=C(S2)C(C#N)C3=NC(=NC=C3)NCCC4=CN=CC=C4 + COc1cccc2cc(-c3nc([C@H]4CC[C@H](C(=O)O)CC4)n4ncnc(N)c34)[nH]c12 [OSI-027] (partner 0.5 µM)
The gist of the method:
(§1)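 Five library-drug doses in √10 steps were combined with a fixed anchor-drug dose, or a single drug was given alone, by pin tool to lung cancer cell lines in 1536-well plates the day after seeding. Nuclei were stained and counted after 5 days. Relative viability is the nuclei count in treated wells over that in vehicle wells, taken as the median of duplicate plates.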

Compound in experiment [2]: C1=CC=C2C(=C1)N=C(S2)C(C#N)C3=NC(=NC=C3)NCCC4=CN=CC=C4 + CC(C)C[C@H](NC(=O)[C@H](Cc1ccccc1)NC(=O)c1cnccn1)B(O)O [Bortezomib] (partner 0.002 µM)
The essentials: as §1

Compound in experiment [3]: C1=CC=C2C(=C1)N=C(S2)C(C#N)C3=NC(=NC=C3)NCCC4=CN=CC=C4 + N=C(N)NC(=N)NCCc1ccccc1 [Phenformin] (partner 250 µM)
The essentials: as §1

Compound in experiment [4]: C#Cc1cccc(Nc2ncnc3cc(OC)c(OCCCCCCC(=O)NO)cc23)c1 [CUDC-101] + CC(=O)c1c(C)c2cnc(Nc3ccc(N4CCNCC4)cn3)nc2n(C2CCCC2)c1=O [Palbociclib] (partner 0.5 µM)
The gist of the method: as §1

The text below walks through data of the supplement of paper PMC10307832.

With UMC-11, the relative viability worked out at 0.408 in experiment [1] (first compound 0.005 µM); 0.493 in experiment [1] (first compound 0.01581 µM); 0.445 in experiment [1] (first compound 0.05 µM); 0.468 in experiment [1] (first compound 0.1581 µM); 0.35 in experiment [1] (first compound 0.5 µM); 0.458 in experiment [2] (first compound 0.005 µM). Besides, the relative viability in experiment [2] (first compound 0.01581 µM) came to 0.695; in experiment [2] (first compound 0.05 µM), 0.901; in experiment [2] (first compound 0.1581 µM) it was 0.875; in experiment [2] (first compound 0.5 µM), 0.488; in experiment [3] (first compound 0.005 µM), 0.3; in experiment [3] (first compound 0.01581 µM), 0.315. Moreover, the relative viability in experiment [3] (first compound 0.05 µM) came out at 0.32; in experiment [3] (first compound 0.1581 µM) it was 0.325; in experiment [3] (first compound 0.5 µM), 0.336; in experiment [4] (first compound 0.01 µM) it was 0.346; in experiment [4] (first compound 0.03162 µM), 0.375; in experiment [4] (first compound 0.1 µM), 0.323. In addition, the figures for the relative viability in experiment [4] (first compound 0.3162 µM) and in experiment [4] (first compound 1 µM) were 0.277 and 0.228, respectively.
